This is an account of results in article PMC5025651, “Reprofiled anthelmintics abate hypervirulent stationary-phase Clostridium difficile” (Scientific Reports, 2016).

The test system of data set [1] is C. difficile strain 4118. As to the kind of experiment: Minimum bactericidal concentration (MBC), logarithmic- and stationary-phase cells. The class given is cell-based, Clostridium difficile. To be noted: for log reduction of CD4118 stationary-phase cells: at 32 μg/mL. The procedure:
The procedure for MBC determination was adapted from that of Alam et al.[44]. Briefly, a single overnight colony of C. difficile strain 4118 (streaked onto blood agar plate) was suspended in BHIS and grown to OD600 ~ 0.4–0.5 (logarithmic phase) or for 24 h (stationary phase). In 96-well microtiter plates, cultures were added to two-fold serial dilutions of test compounds in BHIS and incubated for 20–24 h at 37 °C in an anaerobic chamber. […] MBC measurements were performed in duplicate.

Data set [2] relates to B. thetaiotaomicron ATCC 29148. As to the kind of experiment: microbe, parasite or virus in culture. The class given is cell-based. To be noted: Bacteroides thetaiotaomicron, ATCC29148.
For data set [3] the following is noted: ruminants; cited from earlier work.
In the next data set the test system is Sheep red blood cells. As to the kind of experiment: Hemolysis assay. The class given is cell-based. Particulars: tested at 32 μg/mL, sheep erythrocytes. The gist of the method:
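PBS-washed sheep erythrocytes (3% suspension, pH 7.4) were exposed to compound at 32 μg/mL final for 1 h at 37 °C. After centrifugation, supernatant absorbance at 540 nm was read against 1% Triton X-100 (full lysis) and 0.5% DMSO in PBS. Triplicate.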

In a further data set the test system is HEK 293T/17 cells. As to the kind of experiment: In vitro cytotoxicity, MTS assay. The class given is cell-based, human. To be noted: HEK 293T/17, MTS; for in vitro toxicity compared with niclosamide (in words): 0.125–32 μg/mL. The procedure: (§1) Cell lines Hep G2 [HEPG2] (ATCC® HB-8065^TM) and 293T/17 [HEK 293T/17] (ATCC® CRL-11268^TM) were purchased from ATCC and cultured according to manufacturer’s instructions. HEPG2 or HEK 293T/17 cells were cultured in 96-well plates, and incubated at 37 °C in a 5% CO2 humidifying chamber for 24 h. Cells were then treated with test compounds at concentrations ranging from 0.125–32 μg/mL, and an MTS assay was performed at 16-h post-incubation at 37 °C in a 5% CO2 humidifying chamber, using the CellTiter 96 aqueous non-radioactive cell proliferation assay kit (Promega, Madison, WI, USA) per manufacturer’s instructions. MTS assays were performed in duplicate.
Background: Tetrazolium assays rely on reduction of a dye to a coloured formazan, in cell work by metabolically active cells.

For another data set, the system named is HepG2 cells. As to the kind of experiment: In vitro cytotoxicity, MTS assay. Particulars: for in vitro toxicity compared with niclosamide (in words): 0.125–32 μg/mL. The data set is classed as cell-based, human. On the procedure: as §1
The subject of data set [4] is panel of obligate aerobes, facultative anaerobes and obligate anaerobes. As to the kind of experiment: Antibacterial spectrum, MIC against a panel of bacteria. The data set is classed as cell-based. To be noted: ratio of MIC values.
The test system of data set [5] is C. difficile strain 4118. As to the kind of experiment: Serial passage experiments (resistance development). Particulars: after 21 serial passages of CD4118 at 0.5 × MIC. The data set is classed as cell-based, Clostridium difficile. The procedure:
C. difficile strain 4118 serial passages were performed in BHIS containing 0.03% L-cysteine, using the broth microdilution method. The MIC for each compound was first determined according to the procedure detailed above. […] Serial passage experiments were performed in duplicate.

The subject of data set [6] is C. difficile strain 630 (CD630, ATCC BAA-1382-FZ, ribotype 012). As to the kind of experiment: MIC by broth microdilution. The class given is cell-based, Clostridium difficile. (Dilution methods test growth across graded concentrations, often in twofold steps.)
The mark [7] stands for this setting: Clostridioides difficile, 4118, minimum bactericidal concentration (≥3-log reduction) for logarithmic-phase cells, 20–24 h, n = 2, read-out: MBClog.
[8] abbreviates: Clostridioides difficile, 4118, minimum bactericidal concentration (≥3-log reduction) for stationary-phase cells, 20–24 h, n = 2, read-out: MBCstat.
[9] abbreviates: Clostridioides difficile, 4118, read-out: MBClog.
[10] abbreviates: Clostridioides difficile, 4118, read-out: MBCstat.

Values after ≈ are worked out from the molar mass of the structure shown. Counter-ions that a name gives are not always drawn. Like-named read-outs stand apart in the source and are kept apart here. Some results are limits rather than exact numbers.

Turning to `Cc1cc(C(C#N)c2ccc(Cl)cc2)c(Cl)cc1NC(=O)c1cc(I)cc(I)c1O` (stereo not drawn) [Closantel], the MBC with C. difficile strain 4118 [1] (setting [7]) was 2 µg/mL (≈ 3.02 µM); with C. difficile strain 4118 [1] (setting [8]), 4 µg/mL (≈ 6.03 µM). The compound also yielded an MIC in data set [2] of over 32 µg/mL. Moreover, in [3], the “excreted unchanged in the feces” value was at most 90%.
`O=C(Nc1ccc(Oc2ccc(Cl)cc2)c(Cl)c1)c1cc(I)cc(I)c1O` [Rafoxanide, rafoxanide]: the MBC in the data set on C. difficile strain 4118 [1] (setting [9]) was determined as 0.5 µg/mL (≈ 0.799 µM); in the data set on C. difficile strain 4118 [1] (setting [10]) it was 1 µg/mL (≈ 1.6 µM). In [2], this compound gave an MIC of over 32 µg/mL. In addition, the “rupture of red blood cells (in words)” value with Sheep red blood cells is given as “did not cause rupture of red blood cells”. Moreover, the “in vitro toxicity compared with niclosamide (in words)” value with HEK 293T/17 cells is recorded as “lower in vitro toxicities”; in the data set with HepG2 cells (HepG2, MTS) it was “lower in vitro toxicities”. Further, the “concentration with no apparent effect on cell viability” value is at least 8000 ng/mL in the data set on HEK 293T/17 cells (16 h) and at least 8000 ng/mL in the data set with HepG2 cells (HepG2, MTS, 16 h). For the same compound, the “no-effect concentration on mammalian cell viability relative to MIC values against C. difficile” value in the data set on HepG2 cells (8 μg/mL, HepG2 and HEK 293T/17) was at least 64 fold. Also, in [4], the “selectivity for C. difficile over Bifidobacterium/Lactobacillus strains and Gram-negative gut commensals (Bacteroides species)” value is at least 32 fold.
As to `CN[C@H](CC(C)C)C(=O)N[C@H]1C(=O)N[C@@H](CC(N)=O)C(=O)N[C@H]2C(=O)N[C@H]3C(=O)N[C@H](C(=O)N[C@H](C(=O)O)c4cc(O)cc(O)c4-c4cc3ccc4O)[C@H](O)c3ccc(c(Cl)c3)Oc3cc2cc(c3O[C@@H]2O[C@H](CO)[C@@H](O)[C@H](O)[C@H]2O[C@H]2C[C@](C)(N)[C@H](O)[C@H](C)O2)Oc2ccc(cc2Cl)[C@H]1O` [Vancomycin, vancomycin hydrochloride hydrate], the MBC in the data set on C. difficile strain 4118 [1] (setting [9]) is 8 µg/mL; in the data set on C. difficile strain 4118 [1] (setting [10]), over 32 µg/mL. Further, the “log reduction of CD4118 stationary-phase cells” value in the data set with C. difficile strain 4118 [1] (20–24 h) was under 3 log. For the same compound, in the data set with C. difficile strain 4118 [5], the “final MIC relative to initial (pre-passage) MIC” value is ~ 2 fold. The compound further showed an MIC in data set [2] of over 32 µg/mL.
On to `O=C(Nc1ccc(Oc2ccc(Cl)cc2)cc1)c1cc(Cl)cc(Cl)c1O` [Compound 8], for which the “MIC C. difficile 630” value in data set [6] (BHIS broth, anaerobic, 20–24 h, n = 2) stood at 0.03 µg/mL (≈ 0.0734 µM). For the same compound, in data set [6] (CD630 and CD4118 (Table 2)), the “decrease in MIC relative to 5g” value is given as 4 fold. For the same compound, the MIC was 0.03 µg/mL (≈ 0.0734 µM) in data set [6] (Clostridioides difficile, ATCCBAA1382, BHIS broth, anaerobic, 20–24 h, n = 2) and over 32 µg/mL in [2] (B. thetaiotaomicron ATCC 29148, supplemented Brucella broth, anaerobic, duplicate, read-out: MIC). The MBC with C. difficile strain 4118 [1] (setting [7]) was determined as 0.25 µg/mL (≈ 0.612 µM); in the data set on C. difficile strain 4118 [1] (setting [8]), 1 µg/mL (≈ 2.45 µM). The “rupture of red blood cells (in words)” value with Sheep red blood cells is “did not cause rupture of red blood cells”. In addition, the “in vitro toxicity compared with niclosamide (in words)” value is “lower in vitro toxicities” in the data set with HEK 293T/17 cells and “lower in vitro toxicities” with HepG2 cells (HepG2, MTS).
For `Cc1ncc([N+](=O)[O-])n1CCO` [Metronidazole, metronidazole], the MBC in the data set on C. difficile strain 4118 [1] (setting [7]) and in the data set on C. difficile strain 4118 [1] (setting [8]) was over 32 µg/mL throughout. For the same compound, the “log reduction of CD4118 stationary-phase cells” value with C. difficile strain 4118 [1] (20–24 h) is under 3 log. In addition, the “final MIC relative to initial (pre-passage) MIC” value in the data set on C. difficile strain 4118 [5] is ~ 2 fold. This compound also came in with an MIC in data set [2] of 1 µg/mL (≈ 5.84 µM).
